From ChEMBL document CHEMBL1201862, “PubChem BioAssay data set” (2004)
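48-hour exposure; five concentrations; linearly interpolated endpoints. GI50: concentration for 50% inhibition of growth.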 Active and inactive are the calls of the source. Cut-off read from the data, not from the text of the source: active = GI50 up to about 1.1 µM and inactive = higher. Numbered stars: 1 amine (or outer) side, 2 acyl side, 3 side chain; on linkers, the order of the positions; unused ones are H or OH. Bridge positions count the residues as written; N and C are the ends. Square brackets hold non-standard residues; d marks the D form. Peptide text beside a SMILES is read from it. I, II: the chains in the order shown. Actinocin(9to1) = Cc1c2oc3c(C)ccc(C(=O)[*:1])c3nc-2c(C(=O)[*:2])c(N)c1=O; NMeH = CN[CH](Cc1c[nH]cn1)C(=O)O; Sar = CNCC(=O)O

Columns and labels:
Assay in all cases: inhibition of tumour cell growth, NCI panel, 48 h
[1] = tested on: CCRF-CEM
[2] = tested on: UACC-62
[3] = tested on: SK-MEL-5
[4] = tested on: LOX IMVI
[5] = tested on: SK-OV-3
[6] = tested on: HT-29
[7] = tested on: Malme-3M
[8] = tested on: UO-31
[9] = tested on: SW-620
[10] = tested on: OVCAR-8
[11] = tested on: CAKI-1
[12] = tested on: OVCAR-5
[13] = tested on: DLD-1
[14] = tested on: EKVX
[15] = tested on: OVCAR-3
[16] = tested on: ACHN
[17] = tested on: TK-10
[18] = tested on: RXF 393
[19] = tested on: SR
[20] = tested on: MDA-MB-231

COC(=O)C1CC(C(=O)OC)c2nc3cc(C)c(C)cc3nc21 (centres undefined)
GI50 [1]: > 100 µM (inactive)
GI50 [2]: > 100 µM (inactive)
GI50 [3]: > 100 µM (inactive)
GI50 [4]: > 100 µM (inactive)
GI50 [5]: > 100 µM (inactive)
GI50 [6]: > 100 µM (inactive)
GI50 [7]: > 100 µM (inactive)
GI50 [8]: > 100 µM (inactive)
GI50 [9]: > 100 µM (inactive)
GI50 [10]: > 100 µM (inactive)
GI50 [11]: > 100 µM (inactive)
GI50 [12]: > 100 µM (inactive)
GI50 [13]: > 100 µM (inactive)
GI50 [14]: > 100 µM (inactive)
GI50 [15]: > 100 µM (inactive)
GI50 [16]: > 100 µM (inactive)
GI50 [17]: > 100 µM (inactive)

CCOc1ccccc1/N=N/c1ccc2oc(=O)c(C(C)=O)cc2c1
GI50 [1]: > 100 µM (inactive)
GI50 [2]: > 100 µM (inactive)
GI50 [3]: > 100 µM (inactive)
GI50 [4]: > 100 µM (inactive)
GI50 [5]: > 100 µM (inactive)
GI50 [6]: > 100 µM (inactive)
GI50 [7]: > 100 µM (inactive)
GI50 [8]: > 100 µM (inactive)
GI50 [9]: > 100 µM (inactive)
GI50 [10]: > 100 µM (inactive)
GI50 [11]: > 100 µM (inactive)
GI50 [12]: > 100 µM (inactive)
GI50 [13]: > 100 µM (inactive)
GI50 [14]: 45.9 µM (inactive)
GI50 [15]: > 100 µM (inactive)
GI50 [17]: 30.5 µM (inactive)

O=C1C[C@H](Sc2ccccc2)C2(OCCO2)[C@H]2ON3CCC[C@@H]3[C@@H]12
GI50 [1]: 0.127 µM (active)
GI50 [2]: 1.73 µM (inactive)
GI50 [3]: 7.23 µM (inactive)
GI50 [4]: 1.09 µM (active)
GI50 [5]: 3.13 µM (inactive)
GI50 [6]: 0.759 µM (active)
GI50 [18]: 1.69 µM (inactive)
GI50 [7]: 1.73 µM (inactive)
GI50 [8]: 1.58 µM (inactive)
GI50 [9]: 0.723 µM (active)
GI50 [10]: 0.918 µM (active)
GI50 [11]: 2.29 µM (inactive)
GI50 [12]: 3.01 µM (inactive)
GI50 [14]: 2.53 µM (inactive)
GI50 [15]: 0.904 µM (active)
GI50 [19]: 0.286 µM (active)
GI50 [16]: 2.1 µM (inactive)
GI50 [20]: 3.33 µM (inactive)
GI50 [17]: 3.61 µM (inactive)

O=C(O)C1OC(Oc2cc(O)c3c(=O)cc(-c4ccc(O)cc4)oc3c2)C(O)C(O)C1O (centres undefined)
GI50 [3]: > 100 µM (inactive)
GI50 [4]: > 100 µM (inactive)
GI50 [6]: > 100 µM (inactive)
GI50 [7]: > 100 µM (inactive)
GI50 [8]: > 100 µM (inactive)
GI50 [9]: > 100 µM (inactive)
GI50 [10]: > 100 µM (inactive)
GI50 [11]: > 100 µM (inactive)
GI50 [12]: > 100 µM (inactive)
GI50 [13]: > 100 µM (inactive)
GI50 [14]: > 100 µM (inactive)
GI50 [15]: > 100 µM (inactive)
GI50 [16]: > 100 µM (inactive)
GI50 [17]: > 100 µM (inactive)

O=C1/C(=C\c2cccc(Oc3ccccc3)c2)SC(c2ccccc2)N1c1cccc([N+](=O)[O-])c1 (centres undefined)
GI50 [1]: 21.7 µM (inactive)
GI50 [2]: 60.1 µM (inactive)
GI50 [3]: 42.8 µM (inactive)
GI50 [4]: 41.6 µM (inactive)
GI50 [5]: > 100 µM (inactive)
GI50 [6]: 33.9 µM (inactive)
GI50 [18]: > 100 µM (inactive)
GI50 [7]: > 100 µM (inactive)
GI50 [8]: 96.8 µM (inactive)
GI50 [9]: 56.4 µM (inactive)
GI50 [10]: 35.5 µM (inactive)
GI50 [11]: > 100 µM (inactive)
GI50 [12]: > 100 µM (inactive)
GI50 [14]: > 100 µM (inactive)
GI50 [15]: > 100 µM (inactive)
GI50 [19]: 32.3 µM (inactive)
GI50 [16]: > 100 µM (inactive)
GI50 [20]: > 100 µM (inactive)
GI50 [17]: > 100 µM (inactive)

CC(C)(C)c1cc(C(=O)/C=C/c2ccc(O)c(O)c2O)cc(C(C)(C)C)c1O
GI50 [1]: 1.73 µM (inactive)
GI50 [2]: 4.54 µM (inactive)
GI50 [3]: 5.6 µM (inactive)
GI50 [4]: 9.71 µM (inactive)
GI50 [5]: 3.87 µM (inactive)
GI50 [6]: 11.7 µM (inactive)
GI50 [18]: 2.84 µM (inactive)
GI50 [7]: 11.5 µM (inactive)
GI50 [8]: 2.67 µM (inactive)
GI50 [9]: 2.58 µM (inactive)
GI50 [10]: 4.07 µM (inactive)
GI50 [11]: 3.21 µM (inactive)
GI50 [12]: 17.5 µM (inactive)
GI50 [14]: 4.83 µM (inactive)
GI50 [15]: 3.52 µM (inactive)
GI50 [19]: 1.45 µM (inactive)
GI50 [16]: 5.69 µM (inactive)
GI50 [20]: 12 µM (inactive)
GI50 [17]: 3.57 µM (inactive)

Cc1ccc(/C=C2\CN(C)CC3=C2N=C(S)NC3c2ccc(C)cc2)cc1 (centres undefined)
GI50 [1]: 30.1 µM (inactive)
GI50 [2]: 36 µM (inactive)
GI50 [3]: 25.7 µM (inactive)
GI50 [4]: 30.3 µM (inactive)
GI50 [5]: > 100 µM (inactive)
GI50 [6]: 30.8 µM (inactive)
GI50 [18]: 31.6 µM (inactive)
GI50 [7]: 47.3 µM (inactive)
GI50 [8]: 55.1 µM (inactive)
GI50 [9]: 61.2 µM (inactive)
GI50 [10]: 25.5 µM (inactive)
GI50 [11]: > 100 µM (inactive)
GI50 [12]: > 100 µM (inactive)
GI50 [14]: 41.8 µM (inactive)
GI50 [15]: 22.1 µM (inactive)
GI50 [19]: < 0.01 µM (active)
GI50 [16]: 40.7 µM (inactive)
GI50 [20]: 34.8 µM (inactive)
GI50 [17]: 0.341 µM (active)

O=C1C2=C(c3ccccc31)C(c1ccccc1)NC(S)=N2 (centres undefined)
GI50 [1]: 30.1 µM (inactive)
GI50 [2]: 29 µM (inactive)
GI50 [3]: 54.8 µM (inactive)
GI50 [5]: > 100 µM (inactive)
GI50 [6]: 57.5 µM (inactive)
GI50 [7]: > 100 µM (inactive)
GI50 [8]: > 100 µM (inactive)
GI50 [9]: 31 µM (inactive)
GI50 [10]: 35.2 µM (inactive)
GI50 [11]: 48.8 µM (inactive)
GI50 [12]: > 100 µM (inactive)
GI50 [13]: 52.6 µM (inactive)
GI50 [14]: > 100 µM (inactive)
GI50 [15]: 31.6 µM (inactive)
GI50 [16]: > 100 µM (inactive)
GI50 [17]: > 100 µM (inactive)

N#CNc1nc(C(=O)Nc2ccc(Cl)cc2)cc(-c2ccccc2)n1
GI50 [2]: > 100 µM (inactive)
GI50 [3]: > 100 µM (inactive)
GI50 [6]: > 100 µM (inactive)
GI50 [18]: > 100 µM (inactive)
GI50 [7]: > 100 µM (inactive)
GI50 [8]: > 100 µM (inactive)
GI50 [9]: > 100 µM (inactive)
GI50 [10]: > 100 µM (inactive)
GI50 [11]: > 100 µM (inactive)
GI50 [12]: > 100 µM (inactive)
GI50 [13]: > 100 µM (inactive)
GI50 [14]: > 100 µM (inactive)
GI50 [15]: > 100 µM (inactive)
GI50 [16]: > 100 µM (inactive)

Cc1cc(Cl)ccc1NC1=NC(=O)C(CC(=O)Nc2ccc(Cl)cc2Cl)S1 (centres undefined)
GI50 [1]: > 100 µM (inactive)
GI50 [2]: > 100 µM (inactive)
GI50 [3]: > 100 µM (inactive)
GI50 [4]: > 100 µM (inactive)
GI50 [5]: > 100 µM (inactive)
GI50 [6]: > 100 µM (inactive)
GI50 [7]: > 100 µM (inactive)
GI50 [8]: > 100 µM (inactive)
GI50 [9]: > 100 µM (inactive)
GI50 [10]: > 100 µM (inactive)
GI50 [11]: > 100 µM (inactive)
GI50 [12]: > 100 µM (inactive)
GI50 [13]: > 100 µM (inactive)
GI50 [14]: > 100 µM (inactive)
GI50 [15]: > 100 µM (inactive)
GI50 [16]: > 100 µM (inactive)
GI50 [17]: > 100 µM (inactive)

Cc1c2oc3c(C)ccc(C(=O)NC4C(=O)NC(C(C)C)C(=O)N5CCCC5C(=O)N(C)CC(=O)N(C)C(Cc5cnc[nH]5)C(=O)OC4C)c3nc-2c(C(=O)NC2C(=O)NC(C(C)C)C(=O)N3CCCC3C(=O)N(C)CC(=O)N(C)C(Cc3cnc[nH]3)C(=O)OC2C)c(N)c1=O (centres undefined) (I: TVP[Sar][NMeH] / II: TVP[Sar][NMeH]; ester I:1-I:C, II:1-II:C; linker I:N-II:N via Actinocin(9to1); configuration not given here)
GI50 [1]: 59 µM (inactive)
GI50 [2]: 30.3 µM (inactive)
GI50 [3]: 16.9 µM (inactive)
GI50 [4]: 20.2 µM (inactive)
GI50 [5]: 69.3 µM (inactive)
GI50 [6]: 31.8 µM (inactive)
GI50 [18]: 14.7 µM (inactive)
GI50 [7]: 55.7 µM (inactive)
GI50 [8]: 46.8 µM (inactive)
GI50 [9]: 27.4 µM (inactive)
GI50 [10]: > 100 µM (inactive)
GI50 [11]: 38.1 µM (inactive)
GI50 [12]: > 100 µM (inactive)
GI50 [14]: > 100 µM (inactive)
GI50 [15]: > 100 µM (inactive)
GI50 [19]: 65.3 µM (inactive)
GI50 [16]: 51.3 µM (inactive)
GI50 [20]: > 100 µM (inactive)
GI50 [17]: > 100 µM (inactive)
